The source of these data is patent US20070141618A1, “GENES EXPRESSED IN BREAST CANCER AS PROGNOSTIC AND THERAPEUTIC TARGETS” (priority 2001, published 2007).

One assay relates to TFF1. Conditions: reportedly; Prud'homme et al. 1985; cited from earlier work.
Assay [1] relates to primary invasive breast cancer. Briefly: Clinical tumor response (WHO criteria) in randomized Phase III neoadjuvant trial of letrozole versus tamoxifen. Format: in vivo, human (postmenopausal women). Conditions: clinical outcome of patients with profiled biopsies; clinical assessment by palpation at 4 months. The text has this: Definitions of Objective Response Used in the Letrozole (FEMARA™) vs. Tamoxifen Comparison Study
1. Complete Response (CR): The disappearance of all known disease, determined by 2 observations not less than 4 weeks apart.
2. Partial Response (PR): A 50% or more decrease in total tumor size of the lesions which have been measured to determine the effect of therapy by 2 observations not less than 4 weeks apart. In addition there can be no appearance of new lesions or progression of any lesion.
4. Progressive Disease (PD): A 25% or more increase in the size of one or more measurable lesions, or the appearance of new lesions.
Clinical Response Assessment
The primary efficacy variable was tumor response, assessed by clinical examination using World Health Organization (WHO) criteria (see, WHO Handbook for Reporting Results of Cancer Treatment). It was defined as the percentage of patients in each treatment group with a CR or PR as determined clinically in the breast by palpation at 4 months. Possible responses were CR, PR, NC, PD or not assessable/not evaluable (NA/NE). Palpable ipsilateral axillary lymph nodal involvement downgraded a clinical CR in tumor. Other factors were also considered such the percentage of patients who underwent breast-conserving surgery (quadrantectomy/lumpectomy) instead of mastectomy. Patients who became inoperable, or who remained inoperable at 4 months, were counted as treatment failures.
Twenty-one RNA samples were extracted from 14-gauge needle core biopsies collected before initiation of neoadjuvant endocrine therapy from patients enrolled in a randomized Phase III trial of letrozole (FEMARA™, Novartis Pharma, Basal Switzerland) versus tamoxifen for postmenopausal women with primary invasive breast cancer ineligible for breast conserving surgery. RNA was extracted from an additional 30 primary breast adenocarcinomas collected in Sweden, one additional ESR1+breast tumor surgical biopsy, two HUVEC samples, two samples from glioblastoma cell line U373-MG and one MCF7 sample using Trizol (Life Technologies, Gaithersburg, Md.). The clinical samples were collected after informed consent had been obtained according to protocols approved by local ethics committees. RNA was purchased for two samples, an infiltrating Stage III duct carcinoma (Ambion, Austin, Tex.) and a pool of two normal breast tissues (Clontech, Palo Alto, Calif.). The total number of samples prepared was 59 including 53 breast cancer biopsies and one pooled normal breast sample. Total RNA was purified using QIAGEN RNEASY™ columns (Qiagen, Valencia, Calif.), processed and hybridized to the HUGENE™ FL 6800 Array (Affymetrix, Santa Clara, Calif.), as described by Lockhart et al., Nat. Biotechnol., Vol. 14, pp. 1675-1680 (1996).
In another aspect of the invention 136 breast biopsies from 53 patients were obtained. RNA was extracted from 116 biopsies. Expression profiles were generated for 43 biopsies from 35 patients. Predictive markers of endocrine therapy responsiveness in breast tumors were identified. The breakdown of the profiled biopsies from the pre-letrozole (FEMARA™) treatments and the patient's clinical outcome was as follows: four patients with CR, nine patients with PR, four patients with NC and four patients with PD.
For the group treated with tamoxifen there were no patients in the CR category, 10 patients with PR, seven patients with NC and four patients with PD.
Patients with CR or PR were classified as “Responders” and those with NC or PD were classified as “Non-responders”. The expression of 8,000 genes was compared between these two groups in the pre-treatment biopsies from patients given Letrozole (FEMARA™). Numerical values (AvDiff) represent the expression level for that gene in a particular sample. For computational reasons the average of the AvDiff values was calculated for each gene on the array for all of the responders. These averages were then compared to each gene for each individual sample in the Non-responders group. […]

For assay [2], the system named is advanced ER-positive breast cancer. The following applies: patients with advanced ER-positive breast cancer; Clark et al. 1988; cited from earlier work.

In the case of `C[C@]12CCC(=O)C[C@@H]1CC[C@@H]1[C@@H]2CC[C@]2(C)[C@@H](O)CC[C@@H]12` [dihydrotestosterone], in the assay on TFF1, the “effect on TFF1 mRNA levels” value is recorded as “not”.
As for `N#Cc1ccc(C(c2ccc(C#N)cc2)n2cncn2)cc1` [letrozole], in assay [1], the “patients with Complete Response (CR)” value is “four”, the “patients with No Change (NC)” value was “four”, the “patients with Partial Response (PR)” value is “nine” and the “patients with Progressive Disease (PD)” value was “four”.
For `CC(=O)[C@H]1CC[C@H]2[C@@H]3CCC4=CC(=O)CC[C@]4(C)[C@H]3CC[C@]12C` [progesterone], in the assay on TFF1, the “effect on TFF1 mRNA levels” value is listed as “not”.
Turning to `CC/C(=C(\c1ccccc1)c1ccc(OCCN(C)C)cc1)c1ccccc1` [tamoxifen], in assay [1], the “patients with Complete Response (CR)” value is “no”, the “patients with No Change (NC)” value is recorded as “seven”, the “patients with Partial Response (PR)” value is on record as 10 patients and the “patients with Progressive Disease (PD)” value is listed as “four”. Also, in assay [2], the response rate result is listed as “around 50%”. Moreover, the “effect on estradiol induction of TFF1” value in the assay with TFF1 is “inhibited”.
